According to ChEMBL document CHEMBL4376815, “The Development Process for Discovery and Clinical Advancement of Modern Antimalarials” (J Med Chem, 2019):
Converted amounts (≈) assume the structure as drawn. One block for each compound: values may come before it.

Experiments:
[1] = Drug level in human Plasma treated with [14C]-KAE609 assessed metabolite formation; type: ADME, cell-free
[2] = Drug recovery in feces of po dosed human by LC-MS/MS analysis; type: ADME, organism-based; conditions: faeces, read-out: Drug recovery
[3] = Half life in human; type: ADME
Plasmodium falciparum [4] = assay: Antimalarial activity against Plasmodium falciparum asexual blood stage form infected in human assessed as parasite clearance half-life at 10 mg, po after 8 days; type: functional, organism-based
Plasmodium vivax [5] = assay: Antimalarial activity against Plasmodium vivax infected in human erythrocytes assessed as reduction in [3H]-hypoxanthine incorporation incubated for 40 hrs followed by addition of [3H]-hypoxanthine and measured after 4 hrs by liquid scintillation counting method; type: functional, organism-based
[6] = AUC in monkey at 1 mg/kg, iv by LC-MS analysis; type: ADME, organism-based, Macaca mulatta; conditions: rhesus monkey, in vivo
[7] = AUC in Beagle dog at 1 mg/kg, iv by LC-MS analysis; type: ADME, organism-based, Canis lupus familiaris; conditions: in vivo
[8] = Half life in human at 25 to 1200 mg, po measured up to 480 hrs by HPLC-MS/MS analysis; type: ADME, organism-based; conditions: in vivo
[9] = molecular target: Voltage-gated inwardly rectifying potassium channel KCNH2 (Homo sapiens, UniProt Q12809); assay: Inhibition of human ERG by patch clamp method
Plasmodium falciparum [10] = assay: Antimalarial activity against Plasmodium falciparum asexual blood stage form infected in human assessed as reduction in parasite growth at 400 mg, po measured on day 14 by qPCR analysis relative to control; type: functional; set-up: scale not given: the % may be the effect or the level left
Plasmodium falciparum [11] = assay: Antimalarial activity against Plasmodium falciparum asexual blood stage form infected in human assessed as parasite clearance half-life; type: functional, organism-based
[12] = Half life in monkey at 1 mg/kg, iv by LC-MS analysis; type: ADME, organism-based, Macaca mulatta; conditions: rhesus monkey, in vivo
[13] = Inhibition of Plasmodium vivax DHODH expressed in Escherichia coli using L-dihydroorotate as substrate
Plasmodium falciparum [14] = assay: Antimalarial activity against schizont stage of Plasmodium falciparum clinical isolate; type: functional, organism-based
[15] = Plasma clearance in Beagle dog at 1 mg/kg, iv by LC-MS analysis; type: ADME, organism-based, Canis lupus familiaris
Plasmodium falciparum [16] = assay: Antimalarial activity against mefloquine/chloroquine-resistant Plasmodium falciparum asexual blood stage forms; type: functional, organism-based
Plasmodium falciparum [17] = assay: Antimalarial activity against Plasmodium falciparum 3D7 infected in bid administered po dosed NOD-scid IL-2Rgamma null mouse assessed as reduction in parasite growth after 3 day by flow cytometric analysis; type: functional
[18] = Half life in Beagle dog at 1 mg/kg, iv by LC-MS analysis; type: ADME, organism-based, Canis lupus familiaris; conditions: in vivo
[19] = Tmax in human at 25 to 1200 mg, po measured up to 480 hrs by HPLC-MS/MS analysis; type: ADME, organism-based; conditions: in vivo
Plasmodium falciparum [20] = assay: Antimalarial activity against Plasmodium falciparum asexual blood stage form infected in human assessed as reduction in parasite growth at 400 mg, po after 72 hrs by blood smear based assay relative to control; type: functional; set-up: scale not given: the % may be the effect or the level left
Plasmodium falciparum [21] = assay: Antimalarial activity against mefloquine/chloroquine-resistant Plasmodium falciparum asexual blood stage forms assessed as parasite clearance time at 10 times EC50; type: functional
[22] = Plasma clearance in monkey at 1 mg/kg, iv by LC-MS analysis; type: ADME, organism-based, Macaca mulatta; conditions: rhesus monkey
Plasmodium falciparum [23] = assay: Antimalarial activity against Plasmodium falciparum NF54 liver stage form schizonts infected in human hepatocytes assessed as EEF diameter; type: functional, organism-based
Plasmodium falciparum [24] = assay: Antimalarial activity against Plasmodium falciparum asexual blood stage form infected in human assessed as reduction in parasite growth after 10 to 22 days; type: functional
Plasmodium falciparum [25] = assay: Antimalarial activity against Plasmodium falciparum 3D7 infected in qd administered po dosed NOD-scid IL-2Rgamma null mouse assessed as reduction in parasite growth after 3 day by flow cytometric analysis; type: functional
Plasmodium falciparum [26] = assay: Antimalarial activity against Plasmodium falciparum asexual blood stage form infected in human assessed as parasite clearance half-life at 150 mg, po after 8 days; type: functional, organism-based
[27] = Cmax in human at 25 to 1200 mg, po measured up to 480 hrs by HPLC-MS/MS analysis; type: ADME, organism-based; conditions: in vivo
Plasmodium falciparum [28] = assay: Antimalarial activity against Plasmodium falciparum asexual blood stage form infected in human assessed as reduction in parasite growth at 400 mg, po measured on day 14 by blood smear based assay relative to control; type: functional; set-up: scale not given: the % may be the effect or the level left
Plasmodium vivax [29] = assay: Antimalarial activity against schizont stage of Plasmodium vivax clinical isolate; type: functional, organism-based
Plasmodium falciparum [30] = assay: Antimalarial activity against Plasmodium falciparum asexual blood stage form infected in human assessed as reduction in parasite growth at 250 mg, po measured on day 14 by blood smear based assay relative to control; type: functional; set-up: scale not given: the % may be the effect or the level left
Plasmodium cynomolgi = assay: Antimalarial activity against Plasmodium cynomolgi liver stage form infected in human hepatocytes; type: functional, organism-based
[31] = AUC (0 to infinity) in human at 25 to 1200 mg, po measured up to 480 hrs by HPLC-MS/MS analysis; type: ADME, organism-based; conditions: in vivo
Plasmodium falciparum [32] = assay: Antimalarial activity against mefloquine/chloroquine-resistant Plasmodium falciparum asexual blood stage forms assessed as parasite clearance time at 100 times EC50; type: functional
Plasmodium falciparum [33] = assay: Antimalarial activity against Plasmodium falciparum infected in human assessed as median parasite clearance time at 400 […], po administered for 3 consecutive day and measured on day 5; type: functional
[34] = Apparent clearance in human at 10 to 1200 mg and measured up to 360 hrs by LC-MS/MS method; type: ADME; conditions: in vivo, read-out: CL(app)
[35] = Half life in human infected with Plasmodium vivax at 400 mg administered for 3 consecutive days and measured up to 192 hrs; type: ADME; conditions: in vivo
[36] = Cardiotoxicity in human assessed as effect on QT parameters at 800 mg; type: toxicity
[37] = Cardiotoxicity in human assessed as effect on QT parameters at 800 mg in presence of PPQ; type: toxicity; conditions: in vivo
[38] = Half life in human infected with Plasmodium falciparum at 400 mg administered for 3 consecutive days and measured up to 192 hrs; type: ADME; conditions: in vivo
[39] = Plasma clearance in Wistar Hannover rat at 3 mg/kg, iv by LC-MS/MS analysis; type: ADME, organism-based
Plasmodium vivax [40] = assay: Antimalarial activity against Plasmodium vivax assessed as reduction in parasite growth after 72 hrs by SYBR-green based fluorescence assay; type: functional, organism-based
[41] = Half life in Wistar Hannover rat at 3 mg/kg, iv by LC-MS/MS analysis; type: ADME, organism-based; conditions: in vivo
[42] = Oral bioavailability in Wistar Hannover rat at 10 mg/kg by LC-MS/MS analysis; type: ADME, organism-based; conditions: in vivo
[43] = Tmax in human at 10 to 1200 mg and measured up to 360 hrs by LC-MS/MS method; type: ADME; conditions: in vivo
Plasmodium falciparum [44] = assay: Antimalarial activity against Plasmodium falciparum assessed as reduction in parasite growth after 72 hrs by SYBR-green based fluorescence assay; type: functional, organism-based
[45] = Volume of distribution in human at 10 to 1200 mg and measured up to 360 hrs by LC-MS/MS method; type: ADME; conditions: in vivo
[46] = Cmax in Wistar Hannover rat at 10 mg/kg, po by LC-MS/MS analysis; type: ADME, organism-based; set-up: dose 10 mg/kg, route oral; conditions: in vivo
[47] = Half life in human at 10 to 1200 mg and measured up to 360 hrs by LC-MS/MS method; type: ADME; conditions: in vivo
[48] = Cmax in human at 10 to 1200 mg and measured up to 360 hrs by LC-MS/MS method; type: ADME; conditions: in vivo
Plasmodium vivax [49] = assay: Antimalarial activity against Plasmodium vivax infected in human assessed as median parasite clearance time at 800 […], po and measured on day 5; type: functional
Plasmodium vivax [50] = assay: Antimalarial activity against Plasmodium vivax infected in human assessed as median parasite clearance time at 400 […], po administered for 3 consecutive day and measured on day 5; type: functional
[51] = Half life in Wistar Hannover rat at 10 mg/kg, po by LC-MS/MS analysis; type: ADME, organism-based; conditions: in vivo
[52] = Volume of distribution at steady state in Wistar Hannover rat at 3 mg/kg, iv by LC-MS/MS analysis; type: ADME, organism-based; conditions: in vivo, read-out: Vdss
[53] = Tmax in Wistar Hannover rat at 10 mg/kg, po by LC-MS/MS analysis; type: ADME, organism-based; conditions: in vivo
Plasmodium falciparum [54] = assay: Antimalarial activity against Plasmodium falciparum infected in human assessed as median parasite clearance time at 800 […], po and measured on day 5; type: functional
[55] = Cardiotoxicity in human assessed as effect on QT parameters at 1280 mg; type: toxicity
Cytochrome P450 3A4 = Cytochrome P450 3A4 (Homo sapiens, UniProt P08684); assay: Inhibition of CYP3A4 (unknown origin); type: ADME
[56] = Plasmodium falciparum, 3D7, po, 72 h

Sequence of Voltage-gated inwardly rectifying potassium channel KCNH2 (Q12809 whole entry): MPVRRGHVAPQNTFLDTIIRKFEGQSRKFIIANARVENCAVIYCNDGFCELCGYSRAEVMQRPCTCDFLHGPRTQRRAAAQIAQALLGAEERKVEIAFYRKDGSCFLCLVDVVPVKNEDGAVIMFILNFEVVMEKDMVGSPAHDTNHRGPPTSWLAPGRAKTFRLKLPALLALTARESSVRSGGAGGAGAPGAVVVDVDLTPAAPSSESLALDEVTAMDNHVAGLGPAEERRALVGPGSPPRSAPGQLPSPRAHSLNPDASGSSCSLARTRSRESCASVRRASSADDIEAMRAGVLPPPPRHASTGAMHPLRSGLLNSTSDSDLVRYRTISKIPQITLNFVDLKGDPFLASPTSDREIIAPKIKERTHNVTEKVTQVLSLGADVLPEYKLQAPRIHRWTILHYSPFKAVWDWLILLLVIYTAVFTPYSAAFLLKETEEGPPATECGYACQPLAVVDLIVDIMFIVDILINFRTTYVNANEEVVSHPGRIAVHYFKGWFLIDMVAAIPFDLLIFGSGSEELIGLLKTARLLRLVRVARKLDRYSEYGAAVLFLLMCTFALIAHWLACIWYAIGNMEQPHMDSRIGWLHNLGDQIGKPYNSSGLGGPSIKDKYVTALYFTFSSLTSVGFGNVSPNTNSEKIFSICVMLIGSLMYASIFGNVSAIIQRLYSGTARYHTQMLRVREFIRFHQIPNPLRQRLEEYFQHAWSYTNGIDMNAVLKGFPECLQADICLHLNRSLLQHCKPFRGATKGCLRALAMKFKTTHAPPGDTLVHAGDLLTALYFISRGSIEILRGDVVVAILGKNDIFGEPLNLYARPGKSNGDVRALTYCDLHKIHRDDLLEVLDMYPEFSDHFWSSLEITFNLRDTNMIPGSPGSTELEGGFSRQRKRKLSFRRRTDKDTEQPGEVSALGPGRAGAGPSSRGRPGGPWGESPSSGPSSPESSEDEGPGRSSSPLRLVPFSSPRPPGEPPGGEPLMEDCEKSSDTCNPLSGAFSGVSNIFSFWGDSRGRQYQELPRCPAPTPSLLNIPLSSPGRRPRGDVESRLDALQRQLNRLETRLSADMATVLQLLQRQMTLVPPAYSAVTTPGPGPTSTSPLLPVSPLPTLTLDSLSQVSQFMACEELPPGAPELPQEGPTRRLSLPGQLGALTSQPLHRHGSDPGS
Sequence of Cytochrome P450 3A4 (P08684 whole entry): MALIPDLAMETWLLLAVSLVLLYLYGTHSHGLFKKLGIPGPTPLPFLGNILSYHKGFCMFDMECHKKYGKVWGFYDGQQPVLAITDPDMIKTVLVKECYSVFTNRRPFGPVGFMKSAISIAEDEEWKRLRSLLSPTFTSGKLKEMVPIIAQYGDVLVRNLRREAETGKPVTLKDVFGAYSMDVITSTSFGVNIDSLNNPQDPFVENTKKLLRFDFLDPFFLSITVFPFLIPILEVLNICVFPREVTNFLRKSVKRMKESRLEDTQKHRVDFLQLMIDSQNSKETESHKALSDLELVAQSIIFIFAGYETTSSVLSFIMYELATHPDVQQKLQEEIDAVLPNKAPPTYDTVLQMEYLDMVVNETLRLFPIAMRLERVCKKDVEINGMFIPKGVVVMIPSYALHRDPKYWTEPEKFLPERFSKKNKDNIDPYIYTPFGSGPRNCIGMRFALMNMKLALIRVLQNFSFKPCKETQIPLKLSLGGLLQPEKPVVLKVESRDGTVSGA

SMILES: C[C@H]1Cc2c([nH]c3cc(Cl)c(F)cc23)-c2c3cc(Cl)c(O)cc3nc(=O)n21
Drug uptake [1]: 12% | dose excreted [2]: 36% | half-life [3]: 1500 min

SMILES: O[C@@H](c1cc(C(F)(F)F)nc2c(C(F)(F)F)cccc12)[C@H]1CCCCN1
T1/2 (Plasmodium falciparum [4]): 6.2 h

SMILES: Cc1cc(Nc2ccc(S(F)(F)(F)(F)F)cc2)n2nc(C(C)(F)F)nc2n1 [DSM-265]
EC50 (Plasmodium vivax [5]): 529 nM | AUC [6]: 16700 to 46900 ng·h/mL | AUC [7]: 16700 to 46900 ng·h/mL | half-life [8]: 3.58 to 4.92 days | IC50 [9]: 1.59 to 6.98 µM | Activity (Plasmodium falciparum [10]): 100% | T1/2 (Plasmodium falciparum [11]): 5 h | half-life [12]: 600 to 2700 min | EC50 [13]: 20 nM | EC50 (Plasmodium falciparum [14]): 918 nM | clearance [15]: 0.367 to 0.9 mL/min/kg | EC50 (Plasmodium falciparum [16]): 7 to 16 nM | MIC (Plasmodium falciparum [17]): 6.4 mg/kg | ED90 (Plasmodium falciparum [17]; [56]): 1.5 mg/kg | half-life [18]: 600 to 2700 min | Tmax [19]: 1.5 to 4 h | Activity (Plasmodium falciparum [20]): 100% | Time (Plasmodium falciparum [21]): 85 h | clearance [22]: 0.367 to 0.9 mL/min/kg | EC50 (Plasmodium falciparum [23]): 5.7 ng/mL (≈ 0.0137 µM) | MIC (Plasmodium falciparum [24]): 1.04 µg/mL (≈ 2.5 µM) | MIC (Plasmodium falciparum [25]): 13 mg/kg | ED90 (Plasmodium falciparum [25]; [56]): 3 mg/kg | T1/2 (Plasmodium falciparum [26]): 9.4 h | Cmax [27]: 1310 to 34800 ng/mL | Activity (Plasmodium falciparum [28]): 100% | EC50 (Plasmodium vivax [29]): 190 nM | Activity (Plasmodium falciparum [30]): 88% | EC50 (Plasmodium cynomolgi): 0.13 µg/mL (≈ 0.313 µM) | AUC(0-inf) [31]: 107 to 4720 µg·h/mL | Time (Plasmodium falciparum [32]): 82 h

More lines, main results first:

clearance [34]: 267 to 583 mL/min | half-life [35]: 2640 min | half-life [38]: 2640 min | clearance [39]: 90 mL/min/kg | half-life [41]: 396 min | bioavailability [42]: 48% | Tmax [43]: 1 to 6 h | Vd [45]: 1610 to 2410 L | Cmax [46]: 139 ng/mL | half-life [47]: 1.96 to 2.92 days | Cmax [48]: 7.6 to 2720 ng/mL | half-life [51]: 342 min | Vd [52]: 29.5 L/kg | Tmax [53]: 2 h
SMILES: CC1(C)c2nc(-c3ccc(F)cc3)c(Nc3ccc(F)cc3)n2CCN1C(=O)CN [GANAPLACIDE]
Time (Plasmodium falciparum [33]): 45 h | Activity [36]: 87.5% | Activity [37]: 58.3% | EC50 (Plasmodium vivax [40]): 5.5 nM | EC50 (Plasmodium falciparum [44]): 12.6 nM | Time (Plasmodium vivax [49]): 24 h | Time (Plasmodium vivax [50]): 24 h | Time (Plasmodium falciparum [54]): 49 h

Ki (Cytochrome P450 3A4): 90 nM
SMILES: Clc1ccc2c(N3CCN(CCCN4CCN(c5ccnc6cc(Cl)ccc56)CC4)CC3)ccnc2c1 [PIPERAQUINE]
Activity [55]: 79.2%
